Assay results: patent publication EP0840727B1, “3-HYDROXY-2(1H)-[…] AGENTS” (priority 1995, dated 1997)
Marks after values point to notes of the source that are not given here.

Experiments:
[1] = Fe(III) chelation; cited from earlier work
[2] = Promoting excretion of U(VI) in mice by injected ligand; assay type: in vivo; conditions: U(VI), ligand 30 mmol.kg-1 i.p at 3 to 5 min after actinide i.v., kill at 24 h
From the text: (§1) Animal studies were completed using methods detailed in Radiation Protection Dosimetry, in press, P. W. Durbin et al., "In Vivo Chelation of Am(III), Pu(IV), Np(V) and U(VI) in Mice by TREN-(Me-3,2-HOPO)"; Radiation Protection Dosimetry, 17, No. 1, 1989, p. 351, P. W. Durbin et al., "Removal of ^238Pu(IV) from Mice by Polycatechoylate, -Hydroxamate or -Hydroxypyridinonate Ligands"; Radiation Research, 99, 1984, p. 85, P. W. Durbin et al., "Specific Sequestering Agents for the Actinides ..."; Radiation Research, 99, 1984, p. 106, P. W. Durbin et al., "Removal of Pu and Am from Beagles and Mice ..."; Radiation Research, 81, 1980, p. 170, R. D. Lloyd et al., and P. W. Durbin et al., "Specific Sequestering Agents for the Actinides ...". The foregoing articles are hereby incorporated by reference.
The ^232U was obtained from the Isotope Products Laboratory, Burbank, CA, and ^234,235U was obtained as U metal from long-held LBL storage. The two U sources were combined and dissolved in 6N HNO3, dried, and redissolved in 0.1 N HCl. The daughter radioactivities were removed by elution from a Dowex-50X4 column (22 cm length, 0.7 cm diameter, 1.5 mL·min^-1 flow rate) with 3.2N HCl. The U fractions (previously identified by a trial run with ^234,235U alone) were combined, dried, and redissolved in 0.14M NaCl at pH 5.5.
(§2) One of the comparative chelating agents TREN-Me-3,2-HOPO, was also tested for effectiveness in promoting excretion of ^241Am(III), ^237Np(V), and ^232U(VI) by injection into mice, as follows: Mice, in groups of five, each received an intravenous injection of (a) 1100 Bq of ^241AM(III) in 0.2 mL of citrate buffer, (b) 150 Bq of ^232UO2Cl2 plus 3.6 mg of ^235UO2Cl2 in 0.2 mL of saline, or (c) 200 Bq of ^237NpO2Cl (7.5 mg of ^237NpO2Cl) in 0.2 mL of saline. Three to five minutes later, […] of TREN-Me-3,2-HOPO was injected intraperitoneally in 0.5 mL of saline. The mice were killed 24 hours after the actinide injection, frozen, and dissected after partial thawing. The skeleton, soft tissues, and separated excreta were radioanalyzed by counting the ^241Am gamma rays, or the alpha particles emitted by ^237Np or ^232U (and its ingrowing daughters). Removal of those actinides from mice by injected TREN-Me-3,2-HOPO is summarized in Table 5, which also includes data for mice similarly treated with CaNa3-DTPA and for actinide-injected controls. […] The structure of Am(III)-TREN-Me-3,2-HOPO is considered to resemble that of the Gd(III) complexes (see example 20). Complexation of the fraction of Np(V) that is reduced in vivo to Np(IV) is considered to resemble that of Pu(IV). Complexation of U(VI) is considered to take place through binding to UO2^2+.

[3] = ligand 30 µmol kg^-1 ip at 1 h after iv ^238Pu(IV) citrate, kill at 24 h, reported previously, cited from earlier work
[4] = Promoting excretion of 241Am(III) in mice by injected ligand; assay type: in vivo; conditions: Am(III), ligand 30 mmol.kg-1 i.p at 3 to 5 min after actinide i.v., kill at 24 h
From the text: as §1
Radionuclides used in the animal studies came from a variety of sources. However, they can be purchased commercially. The ^238Pu(IV) citrate and ^241Am(III) citrate solutions were prepared for animal injection by 8- to 10-fold dilution with 0.14M NaCl (pH 4) of concentrated stock solutions (0.08M sodium citrate buffer) that had been held in frozen storage at Lawrence Berkeley Laboratory (hereinafter LBL) for several years. [The ^238Pu(IV) was originally obtained from D. R. Atherton at the University of Utah Radiobiology Laboratory, Salt Lake City. The ^241Am(III) solution had been obtained many years earlier from the LBL Actinide Chemistry group.]
as §2

[5] = Promoting excretion of 237Np(V) in mice by injected ligand; assay type: in vivo; conditions: Np(V), ligand 30 mmol.kg-1 i.p at 3 to 5 min after actinide i.v., kill at 24 h
From the text: as §1
The ^237Np(V) was obtained from J. Bucher of the LBL Actinide Chemistry group as NpO2Cl in 0.1 M HCl. It was diluted to the desired radioactivity concentration in 0.14M NaCl and the pH was adjusted to about 4.5 with NaOH just before use.
as §2

[6] = Solubility in water; assay type: physicochemical; conditions: in words

In the case of O=C(N[C@H]1COC(=O)[C@@H](NC(=O)c2cccc(O)c2O)COC(=O)[C@@H](NC(=O)c2cccc(O)c2O)COC1=O)c1cccc(O)c1O [enterobacun], the “formation constant Kf” value [1] is given as 10^49 and the pM [1] is given as 35.5.

For O=C([O-])CN(CCN(CC(=O)[O-])CC(=O)[O-])CCN(CC(=O)[O-])CC(=O)[O-].[Ca+2].[Na+].[Na+].[Na+] [CaNa3-DTPA, reference compound], the “percent of injected actinide ± SD at 24 h, tissues: kidneys” value [2] was 17 ± 2.8% of injected actinide, the “percent of injected actinide ± SD at 24 h, tissues: skeleton” value [2] was 19 ± 3.0% of injected actinide and the “percent of injected actinide ± SD at 24 h, tissues: soft tissue” value [2] was 2.2 ± 0.1% of injected actinide. For the same molecule, the “percent of injected actinide ± SD at 24 h, whole body” value [2] was 38 ± 0.7% of injected actinide, the “percent of injected actinide at 24 h, combined excreta” value ([2]; feces, GI contents and urine combined) was 62^f percent of injected actinide and the “percent of injected actinide ± SD at 24 h, tissues: liver” value ([2]; livers of some groups pooled) was 1.0^c percent of injected actinide. For the same molecule, the “percent of injected ^238Pu at 24 h, excreta: feces and GI contents” value ([3]; pooled samples) was 5.1% of injected ^238Pu, the “percent of injected ^238Pu at 24 h, excreta: urine 0-24 h” value ([3]; pooled samples) was 61% of injected ^238Pu and the “percent of injected ^238Pu ± SD at 24 h, tissues: liver” value [3] was 17 ± 4.0% of injected ^238Pu. For the same molecule, the “percent of injected ^238Pu ± SD at 24 h, tissues: skeleton” value [3] was 12 ± 2.3% of injected ^238Pu, the “percent of injected ^238Pu ± SD at 24 h, tissues: soft tissue” value [3] was 3.5 ± 1.6% of injected ^238Pu and the “percent of injected ^238Pu ± SD at 24 h, whole body” value [3] was 33 ± 6.6% of injected ^238Pu. For the same molecule, the “percent of injected actinide ± SD at 24 h, tissues: liver” value [4] was 13 ± 1.5^d percent of injected actinide, the “percent of injected actinide ± SD at 24 h, tissues: skeleton” value [4] was 8.5 ± 0.9^d percent of injected actinide and the “percent of injected actinide ± SD at 24 h, tissues: soft tissue” value [4] was 1.9 ± 0.3^d percent of injected actinide. For the same molecule, the “percent of injected actinide ± SD at 24 h, whole body” value [4] was 24 ± 1.3^d percent of injected actinide, the “percent of injected actinide at 24 h, excreta: feces and GI contents” value ([4]; pooled) was 8.0% of injected actinide and the “percent of injected actinide at 24 h, excreta: urine 0-24 h” value ([4]; pooled) was 68% of injected actinide. For the same molecule, the “percent of injected actinide at 24 h, tissues: kidneys” value ([4]; pooled) was 0.4% of injected actinide, the “percent of injected actinide ± SD at 24 h, tissues: liver” value [5] was 14 ± 5.7% of injected actinide and the “percent of injected actinide ± SD at 24 h, tissues: skeleton” value [5] was 40 ± 4.4% of injected actinide. The “percent of injected actinide ± SD at 24 h, tissues: soft tissue” value [5] was 3.5 ± 0.9% of injected actinide, the “percent of injected actinide ± SD at 24 h, whole body” value [5] was 58 ± 8.0% of injected actinide and the “percent of injected actinide at 24 h, excreta: feces and GI contents” value ([5]; pooled) was 1.5% of injected actinide. For the same molecule, the “percent of injected actinide at 24 h, excreta: urine 0-24 h” value ([5]; pooled) was 40% of injected actinide and the “percent of injected actinide at 24 h, tissues: kidneys” value ([5]; pooled) was 1.3% of injected actinide.

For CCCNC(=O)c1ccn(C)c(=O)c1O [3-hydroxy-1-methyl-4(1-propylcarbamoyl)-2(1H)-pyridinone], the solubility in water [6] was “very soluble in water”.
